These results are taken from patent US5296487A, “Quinazoline derivatives and their preparation” (priority 1990, dated 1994).

Series [1] is described as follows: Effect on Renal Blood Flow. Type of series: in vivo, Male beagle dogs. The settings on record: 10 μg/kg i.v., anesthetized dogs. How it is done: Test 6 Effect on Renal Blood Flow
Male beagle dogs, weighing 7-12 kg were anesthetized with sodium pentobarbital (30 mg/kg i.v.). The left renal artery was exposed retroperitoneally through a flank incision, and an electromagnetic flowmeter probe were placed around the left renal artery to measure renal blood flow.

The nature of series [2]: Solubility of the test compounds in various solvents. Type of series: physicochemical. The settings on record: for Solubility: ambient temperature. Here is the method: The solubility of the test compounds in various solvents was measured at ambient temperature.
Series [3] is described as follows: Effect on Plasma Triglyceride Level. Type of series: in vivo, Male SD rats. The settings on record: dose 10 mg/kg/day, orally once a day for two weeks; STZ-induced diabetic rats. How it is done:
Test 7 [Effect on Plasma Triglyceride Level]
Male SD rats weighing 180-230 g were made diabetic by intravenous administration of streptozotocin (STZ) at a dose of 60 mg/kg dissolved in 2 mM citrate buffer (pH 4.5). One week later, the rats were grouped by plasma triglyceride level and test compound were administered orally once a day for two weeks. Then blood samples were collected from orbital vein, and plasma triglyceride levels were measured enzymatically (Triglyceride G-Test WAKO). Control group received 0.5% methyl cellulose.

Series [4] can be described thus: Stability (storage at accelerated conditions). It is filed as physicochemical. The following applies: for Residual Amount (%): 12960 min. Here is the method:
Test Compounds were stored for 9 days at accelerated conditions as shown in the following table, and the residual amounts of them were determined by a High Performance Liquid Chromatography (HPLC).

In series [5] the target is α1-adrenoceptor. In words: α1-adrenoceptor binding assay. The settings on record: 3H-Prazosin binding, rat whole brain membranes. How it is done:
Test 5 [α1-adrenoceptor binding assay]
Male Wistar rats (200-250 g) were killed by decapitation and the brain was placed in ice-cold buffer (0.25 M sucrose, 5 mM Tris/HCl, 1 mM MgCl2, pH 7.5).
Whole brain was homogenized in 10-20 volume (w/v) of ice-cold buffer for 20 strokes using a motor-drived Teflon-glass homogenizer. The homogenate was centrifuged at 1,000 g for 10 min at 4° C., and the pellet was discarded. The supernatant was centrifuged at 30,000 g for 20 min at 4° C. The pellet obtained was washed by
resuspension in 20 ml ice-cold 50 mM Tris/HCl, 10 mM MgCl2 buffer (pH 7.5) and recentrifuged at 30,000 g for 20 min at 4° C. The final pellet was resuspended in 15 volumes of original wet weight of 50 mM Tris/HCl, 10 mM MgCl2 buffer (pH 7.5) for use in the assays.
For ^3 H-Prazosin binding to rat brain, membrane suspensions prepared from rat whole brain (0.3-0.4 mg protein) were incubated by constant shaking for 20 min at 30° C. with ^3 H-Prazosin ([…]) and increasing concentrations of test compounds (10^-6 -10^-9 M) in a total volume of 550 μl of 50 mM Tris/HCl, 10 mM MgCl2 buffer containing 0.1 mg/ml bovine serum albumin (pH 7.5). […] These filter disks were counted by liquid scintillation counter with an efficacy of 40%. […] The concentration of the test compound inhibiting 50% of the specific binding of ^3 H-Prazosin was calculated by log profit analysis of the binding data.

Series [6] in a line: Hypotensive effect on spontaneous hypertensive rats. Type of series: in vivo, male spontaneous hypertensive rats. The following applies: dose 0.32 mg/kg, orally. Here is the method:
Test 3 [Hypotensive effect on spontaneous hypertensive rats] 15 to 25-Week-old male spontaneous hypertensive rats with mean arterial blood pressure of about 160-200 mmHg, weighing 300-350 g, were used. The animals were cannulated in the left femoral artery and the mean blood pressure and heart rate were measured with a pressure-transducer. The animals were deprived of food for about 18 hours before oral dosing. The Test Compound was suspended in 0.5% methylcellulose, and given orally.

Series [7] addresses T1, DA2 receptor (Rattus norvegicus, UniProt P61169).
T1 construct: the striatum were dissected from their brains; from tissue; host or cells: rat striatum (male rats, 150-300 g), washed homogenate pellet
In words: Dopamine receptor (DA2 receptor) binding assay. Here is the method: Test 1 Dopamine receptor (DA2 receptor) binding assay
The affinity for DA2 receptor of a Test Compound was determined following in vitro receptor binding assays.
Male rats weighing 150-300g were decapitated and the striatum were dissected from their brains. The tissue was homogenized in 30 volumes of buffer which consisted of 50 mM Tris-HCl (pH 7.4 at 25° C.), 120 mM sodium chloride, 5 mM potassium chloride, 1 mM calcium chloride, 1 mM magnesium chloride, 10 μM pargirine, and 0.1% ascorbic acid. The homogenate was centrifuged at 50,000 g for 15 minutes. The pellet was resuspended in 30 volumes of the buffer. The tissue suspension was centrifuged and suspended again in the same way.
Incubation tubes received 100 μl of [phenyl-4-^3 H]spiperone, 100 μl of the Test Compound and 0.8 ml of tissue suspension during binding assays. The concentration of [phenyl-4-^3 H]spiperone was 0.2 nM. The final tissue concentration of rat striatum was 160 μg/ml. […] The filters were counted by liquid scintillation counter.
Specific binding of the [^3 H]spiperone was determined in the presence of 1 μM butaclamol. The IC50 value of the Test Compound was calculated from the data of [^3 H]spiperone binding in the present of 10^-9 M, 10^-8 M, 10^-7 M and 10^-6 M Test Compound.

For series [8], the system named is reserpine-induced DOPA accumulation. Kind of series: Inhibition of reserpine-induced DOPA accumulation. The settings on record: dose 3.2 mg/kg, orally, 2 hours before sacrifice; striatum. Type of series: in vivo, Male SD rats. Here is the method:
Test 2 [Inhibition of reserpine-induced DOPA accumulation]
Male SD rats weighing 300-400 g were used in this test. Rats were pretreated with reserpine (1 mg/kg, S.C.) 17-19 hours before sacrifice and then fasted. Test Compound was given orally to the rats 2 hours before sacrifice. [m-Hydroxybenzylhydrazine (100 mg/kg, i.p.) was given 30 minutes before sacrifice.] Each rat was exposed to microwaves using a head-focus microwave applicator for 1.5 seconds. The whole brain was removed and further separated into the striatum.
DOPA was determined as follows; the striatum was homogenized in 9 volumes of 0.1N perchloric acid solution (0.4% EDTA·2Na). The homogenate was centrifuged at 10,000 rpm for 1 minutes. The supernatant was applied to high performance liquid chromatography.

The mark [9] stands for this setting: 70° C./75% Relative Humidity, 9 days, HPLC.

Converted amounts (≈) assume the structure as drawn. Where a name gives a salt, the structure may show the parent alone.

T1 sequence (P61169 whole entry): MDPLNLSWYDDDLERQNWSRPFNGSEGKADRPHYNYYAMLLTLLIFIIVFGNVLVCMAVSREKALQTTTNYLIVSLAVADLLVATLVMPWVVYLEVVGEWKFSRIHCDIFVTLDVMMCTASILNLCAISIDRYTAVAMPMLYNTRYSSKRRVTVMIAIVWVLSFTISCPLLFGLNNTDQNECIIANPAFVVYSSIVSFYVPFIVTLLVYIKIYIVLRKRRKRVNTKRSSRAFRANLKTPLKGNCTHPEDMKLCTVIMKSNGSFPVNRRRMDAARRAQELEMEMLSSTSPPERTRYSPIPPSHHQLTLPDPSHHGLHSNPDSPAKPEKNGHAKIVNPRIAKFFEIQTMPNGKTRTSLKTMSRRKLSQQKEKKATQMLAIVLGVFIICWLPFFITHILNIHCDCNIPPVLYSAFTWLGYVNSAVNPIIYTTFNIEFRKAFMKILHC

A word on the Solubility: it is how much of the substance goes into solution per volume. A low value points to little dissolved substance. Consider `CCS(=O)(=O)Nc1ccc2[nH]c(=O)n(CCCCN3CC=C(c4ccccc4)CC3)c(=O)c2c1` [Compound C, 6-Ethylsulfonylamino-3-[4-(4-phenyl-1,2,3,6-tetrahydropyridin-1-yl)butyl]-1,2,3,4-tetrahydroquinazoline-2,4-dione], for which the “RBF (% change)” value in series [1] is “+29 % change”. For the same compound, the Solubility is 0.00941 mg/mL (≈ 19.5 µM) in series [2] (isotonic saline) and 0.0074 mg/mL (≈ 15.3 µM) in series [2] (water). Besides, in series [3], the plasma triglyceride was 138.2 ± 47.0 mg/dL. Further, in series [4] (70° C., 9 days, HPLC, read-out: Residual Amount (%)), the remaining at 216 h was 83.4%. In addition, the “Residual Amount (%)” value in series [4] (setting [9]) is on record as 69.6%.
Usually IC50 stands for the concentration needed to halve the response being measured. As to `O=c1[nH]c2cc(NO)ccc2c(=O)n1CCCCN1CC=C(c2ccccc2)CC1` [Compound A, 7-hydroxyamino-3-[4-(4-phenyl-1,2,3,6-tetrahydropyridin-1-yl)butyl]-1,2,3,4-tetrahydroquinazoline-2,4-dione], the IC50 in series [5] was found to be 20 nM; in series [7] it was 8.1 nM. In addition, the “Maximum decrease of blood pressure (%)” value in series [6] is 34%. In addition, the “Inhibition (%)” value in series [8] is given as 33%.
In series [5], `CS(=O)(=O)Nc1ccc2[nH]c(=O)n(CCCCN3CC=C(c4ccccc4)CC3)c(=O)c2c1` [Compound B, 3-[4-(4-phenyl-1,2,3,6-tetrahydropyridin-1-yl)butyl]-6-methylsulfonylamino-1,2,3,4-tetrahydroquinazoline-2,4-dione] returned an IC50 of 38 nM.
Turning to `CCS(=O)(=O)Nc1ccc2[nH]c(=O)n(CCCCN3CC=C(c4ccccc4)CC3)c(=O)c2c1` [Compound D, 6-ethylsulfonylamino-3-[4-(4-phenyl-1,2,3,6=tetrahydropyridin-1-yl)butyl]-1,2,3,4=tetrahydroquinazoline-2,4-dione sulfate], the Solubility amounted to 0.183 mg/mL in series [2] (isotonic saline) and 0.733 mg/mL in series [2] (water). Further, in series [2] (versus the product of Example 32), the “solubility (in words)” value is listed as “better solubility”. Further, the “stability (in words)” value in series [4] is “better solubility and stability”. Also, the “Residual Amount (%)” value was 98.2% in series [4] (70° C., 9 days, HPLC) and 99.7% in series [4] (setting [9]).
